The source of these data is patent publication US20240300923A1, “IRAK4 Inhibitors” (ASTRAZENECA AB, priority 2022, published 2024).

Some results are limits rather than exact numbers.

Assay [1] addresses human cKit kinase (Homo sapiens (Human), UniProt P10721). Kind of assay: cKit enzyme assay (LANCE, Eurofins CEREP). To be noted: human recombinant enzyme, 50 μM ATP; geometric mean of at least n=2, * = single experiment. In kind it is biochemical. As to the method: Potency of IRAK4 Inhibitor Compounds in cKit Enzyme Assay
Evaluation of the effects of the IRAK4 inhibitor compounds on the activity of the human cKit kinase quantified by measuring the phosphorylation of the substrate Ulight-TK peptide using a human recombinant enzyme and the LANCE® detection method at Eurofins CEREP, catalog item 3070, SOP no 1C768: The test compound, reference compound or water (control) are mixed with the enzyme (0.38 ng) in a buffer containing 40 mM Hepes/Tris (pH 7.4), 0.8 mM EGTA/Tris, 8 mM MgCl2, 1.6 mM DTT and 0.008% Tween 20. Thereafter, the reaction is initiated by adding 100 nM of the substrate Ulight-TK peptide and 50 μM ATP, and the mixture is incubated for 30 min at room temperature. For control basal measurements, the enzyme is omitted from the reaction mixture. Following incubation, the reaction is stopped by adding 13 mM EDTA. After 5 min, the anti-phopho-PT66 antibody labeled with europium chelate is added. After 60 more min, the fluorescence transfer is measured at lex=337 nm, lem=620 nm and lem=665 nm using a microplate reader (Envision, Perkin Elmer). The enzyme activity is determined by dividing the signal measured at 665 nm by that measured at 620 nm (ratio). The results are expressed as a percent inhibition of the control enzyme activity. The standard inhibitory reference compound is staurosporine, which is tested in each experiment at several concentrations to obtain an inhibition curve from which its IC50 value is calculated.
Data presented are the geometric mean of at least n=2, or as denoted by an*are obtained from a single experiment. […] Kinase selectivity can be a key determinant of clinical utility as off target toxicity can be reduced or eliminated.

The target in assay [2] is T1, IRAK4 (Homo sapiens (Human), UniProt Q9NWZ3). Description: IRAK4 phosphorylation cell assay (IL-1β-stimulated Karpas-299 cells). The settings on record: IRAK4 auto-phosphorylation (pIRAK4 Thr345/Ser346) in IL-1β-stimulated Karpas-299 cells; geometric mean of at least 2 experiments. In kind it is cell-based. Here is the method:
IRAK4 Phosphorylation Cell Assay
The activation of IRAK4 by TLR or IL-1R ligands leads to IRAK4 auto-phosphorylation, which can be prevented by IRAK4 kinase inhibitors. The effect of IRAK4 inhibitor compounds on IRAK4 auto-phosphorylation was assessed in IL-1β-stimulated Karpas-299 cells as a measurement of cellular potency. Karpas-299 cells were cultured in RPMI 1640 (Gibco 61870-010) containing 10% FBS (Gibco #10270). Cells were plated at 2×10^4 cells per well in poly-D-lysine coated 384 well plates (Corning #356663) to which compounds had been added at various concentrations (10 point half log dose response with a final top concentration of 30 μM) using an Echo 655 (Labcyte Inc). Cells were centrifuged (250 g, 4 mins), incubated at 37° C. for 1 h, then stimulated with 22.7 ng/mL recombinant IL-1β (R&D Systems, #201-LB-025) at 37° C. for 10 mins, followed by fixation in 4% paraformaldehyde for 20 mins and permeabilization in ice-cold 70% MeOH in PBS for 30 mins. Cells were washed twice with phosphate-buffered saline (PBS) on a BlueWasher (BlueCatBio) then blocked with PBS containing 10% FBS for 20 mins. Blocking solution was removed with a BlueWasher and cells were stained with anti-pIRAK4 (Thr345/Ser346) (CST, #11927, 1:400) in blocking buffer with 0.05% Tween-20 for 1 h, then washed twice with PBS containing 0.05% Tween-20 on a BlueWasher, followed by staining with a Alexa 647-conjugated secondary anti-rabbit IgG antibody (CST, #4414, 1:2,000) and Hoechst 33342 (Sigma, 1:2,000) in blocking buffer with 0.05% Tween-20 for 30 mins. Finally, the cells were washed twice with PBS containing 0.05% Tween-20 and imaged on an ImageXpress Micro (Molecular Devices) with a 10× air objective using the appropriate filters. Images were analysed in Columbus (PerkinElmer) and the fluorescence intensity per cell from the secondary antibody was quantified. The quantified data were analysed in Genedata Screener 19 (Genedata AG). […] IC50 values are the geometric mean of at least 2 experiments.

The target in assay [3] is T1, IRAK4. Kind of assay: IRAK4 enzyme assay (mass spectrometry readout). In kind it is biochemical. To be noted: human recombinant IRAK4 0.2 nM, 3 mM ATP; geometric mean of at least 2 experiments. As to the method: Potency of IRAK4 Inhibitor Compounds in IRAK4 Enzyme Assay
The inhibitory activity of compounds against IRAK4 were determined in an enzymatic assay using mass spectrometry readout. Ten point half-log compound concentration response curves, with a top concentration of 1 μM or 10 μM, were generated from 10 mM stocks of compound solubilized in DMSO using an Echo 655 (Labcyte Inc) and added to 384 well assay plates (Greiner #781280). To the assay plates, 10 μL of human recombinant IRAK4 protein (Life Technologies #PV4002) diluted to a final concentration of 0.2 nM in assay buffer (50 mM Tris-HCl pH 7.4, 10 mM MgCl, 5 mM glutathione, 0.01% BSA, 3 mM ATP) was added. The enzyme was incubated with the compounds at room temperature for 15 minutes before a peptide substrate ([…], Innovagen custom synthesis, 10 mM in DMSO) was added to each well to a final concentration of 10 μM using an Echo 655 (Labcyte Inc). After two hours at room temperature, the reaction was stopped with 65 μL of 0.4% formic acid (Merck #33015). The unphosphorylated and phosphorylated peptide were measured by LC-MS/MS on a Waters TQ-S mass spectrometer. Peaks were integrated using the TargetLynx software and the ratios between phosphorylated and unphosphorylated peptides were calculated. Curves were fitted and compound potencies determined in Genedata Screener 19 (Genedata AG). IC50 values are the geometric mean of at least 2 experiments.

Chain of human cKit kinase (P10721 26-976): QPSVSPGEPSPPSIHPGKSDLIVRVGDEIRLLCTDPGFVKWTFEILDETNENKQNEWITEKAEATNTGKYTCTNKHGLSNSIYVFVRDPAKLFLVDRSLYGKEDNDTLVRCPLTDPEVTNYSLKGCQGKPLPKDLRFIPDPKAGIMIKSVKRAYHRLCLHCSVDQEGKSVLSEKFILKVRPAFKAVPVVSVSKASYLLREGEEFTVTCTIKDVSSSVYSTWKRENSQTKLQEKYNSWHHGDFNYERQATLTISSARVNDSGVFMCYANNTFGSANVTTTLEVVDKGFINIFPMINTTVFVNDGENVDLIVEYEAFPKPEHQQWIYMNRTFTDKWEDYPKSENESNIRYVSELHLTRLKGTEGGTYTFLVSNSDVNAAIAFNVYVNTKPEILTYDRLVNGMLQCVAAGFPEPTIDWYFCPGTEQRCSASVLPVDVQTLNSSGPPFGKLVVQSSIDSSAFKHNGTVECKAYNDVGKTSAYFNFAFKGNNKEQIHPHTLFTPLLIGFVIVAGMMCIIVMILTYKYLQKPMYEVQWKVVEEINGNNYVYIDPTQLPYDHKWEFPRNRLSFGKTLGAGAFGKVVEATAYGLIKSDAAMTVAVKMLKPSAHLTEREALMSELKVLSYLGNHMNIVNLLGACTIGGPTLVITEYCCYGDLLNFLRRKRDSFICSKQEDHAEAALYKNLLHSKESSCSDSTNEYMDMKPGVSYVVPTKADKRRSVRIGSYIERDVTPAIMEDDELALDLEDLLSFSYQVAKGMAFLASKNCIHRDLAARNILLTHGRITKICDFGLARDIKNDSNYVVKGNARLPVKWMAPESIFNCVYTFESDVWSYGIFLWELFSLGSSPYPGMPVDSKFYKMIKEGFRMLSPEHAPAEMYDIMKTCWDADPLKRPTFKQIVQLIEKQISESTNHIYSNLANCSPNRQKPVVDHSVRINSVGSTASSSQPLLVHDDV
T1 sequence (Q9NWZ3 whole entry): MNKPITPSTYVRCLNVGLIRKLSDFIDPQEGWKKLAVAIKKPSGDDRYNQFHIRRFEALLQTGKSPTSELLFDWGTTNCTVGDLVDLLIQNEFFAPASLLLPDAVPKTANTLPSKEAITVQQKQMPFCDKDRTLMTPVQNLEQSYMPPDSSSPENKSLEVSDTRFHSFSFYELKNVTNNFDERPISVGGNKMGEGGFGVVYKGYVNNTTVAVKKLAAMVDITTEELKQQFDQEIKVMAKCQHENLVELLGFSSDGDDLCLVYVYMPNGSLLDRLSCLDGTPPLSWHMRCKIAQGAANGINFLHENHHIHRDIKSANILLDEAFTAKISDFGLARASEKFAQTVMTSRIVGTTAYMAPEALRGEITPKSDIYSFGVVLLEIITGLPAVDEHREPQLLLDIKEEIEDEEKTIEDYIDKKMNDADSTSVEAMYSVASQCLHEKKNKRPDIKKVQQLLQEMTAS

On to `COc1cc2nn([C@H]3CC[C@H](n4ccccc4=O)CC3)cc2cc1C(=O)Nc1cccn(C)c1=O` [Example 22, 6-Methoxy-N-(1-methyl-2-oxo-1,2-dihydropyridin-3-yl)-2-((1r,4r)-4-(2-oxopyridin-1(2H)-yl)cyclohexyl)-2H-indazole-5-carboxamide], for which the IC50 in assay [1] worked out at 26200 nM; in assay [2], 26 nM; in assay [3], 0.5 nM.

`COc1cc2nn(C3CCC(c4cccnn4)CC3)cc2cc1C(=O)Nc1cccn(C)c1=O` (single isomer, unassigned) [Example 23, 6-Methoxy-N-(1-methyl-2-oxo-1,2-dihydropyridin-3-yl)-2-(4-(pyridazin-3-yl)cyclohexyl)-2H-indazole-5-carboxamide]: the IC50 in assay [2] is 185 nM; in assay [3], 5 nM.

Regarding `COc1cc2nn([C@@H]3CCC(N(C)C(C)=O)C[C@H]3C)cc2cc1C(=O)Nc1cccn(C)c1=O` (single isomer, unassigned) [Example 2], the half-inhibitory concentration (IC50) in assay [2] came to 238 nM; in assay [3], 10.7 nM.

Turning to `COc1cc2nn([C@H]3CC[C@H](N4CCN(C)C4=O)CC3)cc2cc1C(=O)Nc1cccn(C)c1=O` [Example 19, 6-Methoxy-N-(1-methyl-2-oxo-1,2-dihydropyridin-3-yl)-2-((1r,4r)-4-(3-methyl-2-oxoimidazolidin-1-yl)cyclohexyl)-2H-indazole-5-carboxamide], the IC50 was determined as 10600 nM in assay [1], 34 nM in assay [2] and 0.9 nM in assay [3].

As to `COc1cc2nn([C@H]3CC[C@H](c4nnco4)CC3)cc2cc1C(=O)Nc1cccn(C)c1=O` [Example 25, 2-((1r,4r)-4-(1,3,4-Oxadiazol-2-yl)cyclohexyl)-6-methoxy-N-(1-methyl-2-oxo-1,2-dihydropyridin-3-yl)-2H-indazole-5-carboxamide], the half-inhibitory concentration (IC50) in assay [1] was greater than 100000 nM; in assay [2], 45 nM; in assay [3] it was 1.7 nM.

On to `COc1cc2nn([C@@H]3CC[C@H](N(C)C(C)=O)C[C@@H]3C)cc2cc1C(=O)Nc1cccn(C)c1=O` (single isomer, unassigned) [Example 6], for which the IC50 in assay [2] was determined as 2880 nM; in assay [3], 199 nM.

`COc1cc2nn([C@H]3CC[C@H](N(C)C(=O)[C@@H](C)O)CC3)cc2cc1C(=O)Nc1cccn(-c2cnn(C)n2)c1=O` [Example 17, 2-((1R,4r)-4-((R)-2-Hydroxy-N-methylpropanamido)cyclohexyl)-6-methoxy-N-(1-(2-methyl-2H-1,2,3-triazol-4-yl)-2-oxo-1,2-dihydropyridin-3-yl)-2H-indazole-5-carboxamide]: the figures for the IC50 in assay [1], in assay [2] and in assay [3] were greater than 100000 nM, 34 nM and 1.1 nM, respectively.

Turning to `COc1cc2nn([C@@H]3CCC(N(C)C(C)=O)C[C@H]3C)cc2cc1C(=O)Nc1cccn(C)c1=O` (single isomer, unassigned) [Example 3], the IC50 was 13700 nM in assay [1], 21 nM in assay [2] and 0.7 nM in assay [3].

With `COc1cc2nn([C@@H]3CC[C@H](N(C)C(C)=O)C[C@@H]3C)cc2cc1C(=O)Nc1cccn(C)c1=O` (single isomer, unassigned) [Example 7], the results for the IC50 in assay [2] and in assay [3] were 4500 nM and 459 nM, respectively.

Take `COc1cc2nn([C@H]3CC[C@H](n4cncn4)CC3)cc2cc1C(=O)Nc1cccn(C)c1=O` [Example 26, 2-((1r,4r)-4-(1H-1,2,4-Triazol-1-yl)cyclohexyl)-6-methoxy-N-(1-methyl-2-oxo-1,2-dihydropyridin-3-yl)-2H-indazole-5-carboxamide]: the IC50 was greater than 100000 nM in assay [1], 38 nM in assay [2] and 2.2 nM in assay [3].

On to `COc1cc2nn([C@@H]3CC[C@@H](N(C)C(C)=O)C[C@@H]3C)cc2cc1C(=O)Nc1cccn(C)c1=O` [Example 4, 6-Methoxy-N-(1-methyl-2-oxo-1,2-dihydropyridin-3-yl)-2-((1R,2S,4R)-2-methyl-4-(N-methylacetamido)cyclohexyl)-2H-indazole-5-carboxamide], for which the results for the IC50 in assay [1], in assay [2] and in assay [3] were 18300 nM, 67 nM and 3.9 nM, respectively.

Consider `COc1cc2nn([C@H]3CC[C@]4(CC3)COC(=O)N4C)cc2cc1C(=O)Nc1cccn(C)c1=O` [Example 21, 6-Methoxy-N-(1-methyl-2-oxo-1,2-dihydropyridin-3-yl)-2-((5r,8r)-1-methyl-2-oxo-3-oxa-1-azaspiro[4.5]decan-8-yl)-2H-indazole-5-carboxamide], for which the IC50 turned out to be 20 nM in assay [2] and 0.4 nM in assay [3].

With `COc1cc2nn([C@H]3CC[C@H](N(C)C(=O)[C@@H](C)O)CC3)cc2cc1C(=O)Nc1cccn(-c2cn[nH]c2)c1=O` [Example 14, 2-((1R,4r)-4-((R)-2-Hydroxy-N-methylpropanamido)cyclohexyl)-6-methoxy-N-(2-oxo-1-(1H-pyrazol-4-yl)-1,2-dihydropyridin-3-yl)-2H-indazole-5-carboxamide], the IC50 in assay [2] is 15 nM; in assay [3], 0.3 nM.

Take `COc1cc2nn([C@H]3CC[C@H](N(C)C(=O)[C@@H](C)O)CC3)cc2cc1C(=O)Nc1cccn(CC#N)c1=O` [Example 10, N-(1-(Cyanomethyl)-2-oxo-1,2-dihydropyridin-3-yl)-2-((1R,4r)-4-((R)-2-hydroxy-N-methylpropanamido)cyclohexyl)-6-methoxy-2H-indazole-5-carboxamide]: the IC50 in assay [1] worked out at 2500 nM; in assay [2], 37 nM; in assay [3], 1.4 nM.

As for `COc1cc2nn(C3CCC(c4cccnn4)CC3)cc2cc1C(=O)Nc1cccn(C)c1=O` (single isomer, unassigned) [Example 24, 6-Methoxy-N-(1-methyl-2-oxo-1,2-dihydropyridin-3-yl)-2-(4-(pyridazin-3-yl)cyclohexyl)-2H-indazole-5-carboxamide], the IC50 in assay [1] turned out to be 88100 nM; in assay [2], 17 nM; in assay [3], 1.2 nM.

With `COc1cc2nn([C@H]3CC[C@H](N(C)C(=O)[C@@H](C)O)CC3)cc2cc1C(=O)Nc1cccn(C2CC2)c1=O` [Example 12, N-(1-Cyclopropyl-2-oxo-1,2-dihydropyridin-3-yl)-2-((1R,4r)-4-((R)-2-hydroxy-N-methylpropanamido)cyclohexyl)-6-methoxy-2H-indazole-5-carboxamide], the IC50 was found to be 58200 nM in assay [1], 24 nM in assay [2] and 0.6 nM in assay [3].
